Source: patent US20020177572A1, “Viral infection of cells” (priority 1997, published 2002)
Residues, ends and D or L forms follow the SMILES beside them. *: point of attachment. Cbz = O=C(OCc1ccccc1)*; OtBu = CC(C)(C)O*

B1: M-CSF: macrophage colony stimulating factor (protein, UniProt P09603 33-554, looked up)
Macrophage colony-stimulating …: EEVSEYCSHMIGSGHLQSLQRLIDSQMETSCQITFEFVDQEQLKDPVCYLKKAFLLVQDIMEDTMRFRDNTPNAIAIVQLQELSLRLKSCFTKDYEEHDKACVRTFYETPLQLLEKVKNVFNETKNLLDKDWNIFSKNCNNSFAECSSQDVVTKPDCNCLYPKAIPSSDPASVSPHQPLAPSMAPVAGLTWEDSEGTEGSSLLPGEQPLHTVDPGSAKQRPPRSTCQSFEPPETPVVKDSTIGGSPQPRPSVGAFNPGMEDILDSAMGTNWVPEEASGEASEIPVPQGTELSPSRPGGGSMQTEPARPSNFLSASSPLPASAKGQQPADVTGTALPRVGPVRPTGQDWNHTPQKTDHPSALLRDPPEPGSPRISSLRPQGLSNPSTLSAQPQLSRSHSSGSVLPLGELEGRRSTRDRRSPAEPEGGPASEGAARPLPRFNSVPLTDTGHERQSEGSFSPQLQESVFHLLVPSVILVLLAVGGLLFYRWRRRSHQEPQRADSPLEQPEGSPLTQDDRQVELPV

How the values were obtained:
[1] = tested on: U937; assay: Adenovirus infection and integrin induction in U937 cell line; format: cell-based, human; settings: results not shown
[2] = tested on: primary human monocytes; assay: Adenoviral infection of primary human monocytes (β-galactosidase expression by FACS); format: cell-based; settings: prior cytokine treatment for 72 hours, then β-galactosidase adenovirus at 100 m.o.i.
Experimental: Human monocytes or murine RAW 264.7 were cultured at 5×10^5/ml in RPM1 1640 (Bio Whittaker inc.) supplemented with 5% (v/v) heat inactivated foetal calf serum containing 10 units/ml penicillin/streptomycin and 2 mM glutamine at 37° C. Monocytes were treated with GM-CSF (5U/ml) or M-CSF (1 μg/ml) for 72 hours. Expression of integrins was assayed by indirect immunofluorescence and FACS analysis using monoclonal antibodies to αVβ3 (100 μg/ml LM609, provided by IXSYS Corp. (San Diego Calif. USA), or αVβ5 (undiluted active supernatant kindly provided by J. Gamble Smith). The commercially available monoclonal antibody OX14(100 μg/ml) was used as a negative control.
Following cytokine treatment monocytes were washed in RPM 1640 and resuspended at 5×10^5 cells/ml. The cells were infected with virus at the indicated plaque forming units per cell (multiplicity of infection—m.o.i.). β-galactosidase expression in individual cells was measured by FACS.

[3] = tested on: THP-1; assay: Adenovirus infection and integrin induction in THP-1 cell line; format: cell-based, human; settings: results not shown
[4] = tested on: M-CSF-treated human monocytes; assay: Cytokine production in response to various stimuli (ELISA); format: cell-based; settings: production induced by the stimulus; means of 4-11 experiments
Experimental: The elutriated human monocytes were incubated at approximately 2×10^6/ml in RPMI 1640 with 25 mM HEPES and 2 mM L-glutamine, supplemented with 5% (v/v) heat inactivated fetal calf serum and 10 units/ml penicillin/streptomycin. […] The cells were then replated on 100 mm Petri dishes and infected for 2 h with a m.o.i. of between 10:1 and 120:1 (in most experiments, 20:1. 40:1 or 80:1 was used) of either AdvIκBα or Adv0, in serum-free RPMI 1640. Cells were then incubated in RPMI 1640 supplemented as above for 48 h to allow for significant over-expression of IκBα, as assessed. During the changes of medium involved, non-adherent cells were discarded, resulting in a further purification of monocyte-derived macrophages.
(§1) In the assays for cytokine production, cells were replated at 5×10^5 cells per well on a 96-well dish, and stimulated as above for 4 or 16 h. Supernatants were analysed for TNFα (27), IL-1β, IL-6 and IL-8 (23), IL-10 (29, 30), IL-1ra and the p55 and p75 soluble TNF receptors (31) by ELISA. The proteosome inhibitor Cbz-Ile-Glu(O-t-Bu)-Ala-leucinal (PSI) was obtained from Calbiochem (Nottingham. England).
LPS is capable of inducing all the cytokines (TNFα, IL-1β, IL-6, IL-8) and inhibitors (IL-10, IL-1ra and the soluble TNF receptors) assayed in this study (Table I; the results are means of 4-11 experiments). The induction of TNFα mRNA by zymosan, has previously been reported to be far weaker than LPS-induced TNFα mRNA in mouse peritoneal macrophages (32), but the TNFα response to zymosan in M-CSF-treated human monocytes was equal to that of LPS (Table 1).

[5] = tested on: human monocyte-derived macrophages; assay: Effect of proteosome inhibitor PSI on induced TNFα production; format: cell-based; settings: FIG. 14
Experimental: as §1
The independence from NFκB of zymosan induced TNF was further emphasised by studies with the proteosome inhibitor PSI. Inhibition of proteosome function inhibits IκBα degradation thus preventing NFκB nuclear translocation.

Molecule | induction of αVβ3 or αVβ5 expression [1] | cells expressing the β-galactosidase gene [2] | induction of αVβ3 or αVβ5 expression [3] | Anti-inflammatory cytokines: IL-10 [4] | Proinflammatory cytokines: IL-1 [4] | Proinflammatory cytokines: IL-6 [4] | Anti-inflammatory cytokines: IL-tra [4] | Anti-inflammatory cytokines: P55 s TNF-R [4] | Anti-inflammatory cytokines: P75 s TNF-R [4] | Proinflammatory cytokines: IL-8 [4] | Proinflammatory cytokines: TNFα [4] | also measured
GM-CSF: granulocyte-macrophage colony stimulating factor | neither cytokine was able to induce | 52% | neither cytokine was able to induce |  |  |  |  |  |  |  |  | 
TNFα |  |  |  | 0 pg/mL | 200 pg/mL | 2000 pg/mL |  |  |  |  |  | 
C[C@H](CCC(=O)O)C[C@H](C)C[C@H](C)C(=O)/C=C(\O)[C@H](C)C[C@H](C)C/C=C/[C@@H](C)[C@@H](O)[C@@H](C)[C@@H](O)C[C@@H]1CC[C@@](C)([C@H]2CC[C@@](C)([C@@H](C)O)O2)O1 [Lomycin, ionomycin] |  |  |  | 0 pg/mL | 0 pg/mL | 0 pg/mL | 0 pg/mL | 0 pg/mL | 0 pg/mL | 900 pg/mL | 0 pg/mL | 
CC[C@H](C)[C@H](NC(=O)OCc1ccccc1)C(=O)N[C@@H](CCC(=O)OC(C)(C)C)C(=O)N[C@@H](C)C(=O)N[C@H](C=O)CC(C)C [PSI, Cbz-Ile-Glu(O-t-Bu)-Ala-leucinal] (Cbz-IE(OtBu)AL-aldehyde) |  |  |  |  |  |  |  |  |  |  |  | effect on LPS induced TNF production ([5]; LPS): very effective in blocking; effect on zymosan-induced TNF production ([5]; zymosan): did not affect
CCCCCCCCCCCCCC(=O)O[C@@H]1[C@@H](C)[C@@]2(O)[C@@H](C=C(CO)C[C@]3(O)C(=O)C(C)=C[C@@H]23)[C@@H]2C(C)(C)[C@]12OC(C)=O [PMA] |  |  |  | 0 pg/mL | 400 pg/mL | 300 pg/mL | 1000 pg/mL | 0 pg/mL | 500 pg/mL | 3000 pg/mL | 6000 pg/mL | 
B1 | neither cytokine was able to induce | 90% | neither cytokine was able to induce |  |  |  |  |  |  |  |  | 
